Data on 3 compounds can be found in the NIST ThermoML archive (doi:10.1007/s10765-010-0717-9).

The conditions of the data set: 298.15 K; 101.33 kPa; Liquid; Pycnometric method.

Numbers after ± are expanded uncertainties.

What is called mass density is the mass of a sample divided by its volume. As to `Cc1ccc(C)cc1` [1,4-dimethylbenzene], the mass density was found to be 856.58 ± 5.3 kg/m3.

For the compound `Cc1ccccc1` [toluene], the mass density amounted to 862.21 ± 5.4 kg/m3. For `Cc1ccccc1C` [1,2-dimethylbenzene], the mass density is reported as 875.99 ± 5.6 kg/m3.
